Results reported in patent publication EP4434515A1, “CBD FOR OCULAR USE” (Laboratoire Laredo S.L., priority 2023, dated 2024).
Read-outs that look alike come from different tables or passages of the source.

How the values were obtained:
[1] = CBD release from micelles through the HA hydrogel into simulated tear fluid, HPLC; format: physicochemical; settings: after 12 h, simulated tear fluid as receiving medium
Procedure: Next, an assay of CBD release from micelles through the HA hydrogel was carried out for 24 hours (the time that the gel will be in contact with the eye), using STF (simulated tear fluid: NaCl (0.68 g), NaHCO3 (0.22 g), CaCl2·2H2O (0.008 g), KCI (0.14 g), and type II water to a total volume of 100 ml, filtered through a 0.2 µm pore size filter) as the receiving medium in order to recapitulate as much as possible release in tears, and taking samples at 1, 3, 5 8, 12 and 24 h. High-Performance Liquid Chromatography (HPLC) was the analytical technique that allowed the separation, identification (by comparison with standard patterns) and quantification, using a reverse phase and mobile phase under certain conditions; a mixture of methanol and water (85:15). The other conditions are as follows; flow rate of 1.0 ml/min, injection volume 10 µl and wavelength at 220 nm. Under the conditions mentioned above, a good determination of the CBD can be carried out.

DBA/2J mice [2] = assay: Intraocular pressure (IOP) by rebound tonometry in glaucoma model mice; format: in vivo
Procedure: The study of the effects of topical ophthalmic CBD administration in micelles was carried out with outbred CD-1 mice and inbred DBA/2J mice. Male JAXTM DBA/2J mice homozygous for null mutations in Tyrplb and GpnmbR150X (-/-) were purchased from Charles River Laboratories (France). CD-1® IGS male mice were obtained from the animal facilities of Universidad Rey Juan Carlos, using 51 mice in total for the study . All animals were 4 weeks-old at the beginning of the study. They were maintained in a temperature (23 ± 1 °C) and humidity (50-55%) controlled room, under a 12 h light/dark cycle (lights off between 19:00 and 07.00 h). Animals had free access to standard laboratory rat chow (Harlan Laboratories Inc.) and tap water. Trained investigators blind to drug treatment conducted all the behavioural assays in groups of two. Experiments were performed between 8:00 and 11:00 a.m. in conscious animals. All animal procedures were designed and conducted in accordance with a protocol approved by the Ethical Committee of Universidad Rey Juan Carlos and by the Autonomous Region of Madrid (PROEX 187.3/21) and followed the guidelines for the Care and Use of Laboratory Animals of the European Union Directive (2010/63/EU) and Spanish regulations (Law 32/2007, RD 53/2013 and order ECC/566/2015). A total of 51 male mice were utilised in this study, as explained in section 2.2 below. The number of animals used and their suffering were minimised
(§1) The research plan designed with the animal model is depicted in Fig. 3. It comprises three main phases: • An ageing phase, which includes an initial 3-month period of quarantine and acclimatisation and an additional 4.5-month period during which IOP (from month 3 until month 7,5), tear production (from month 5,5 until month 7,5) and tactile sensitivity (from month 4 to month 7,5) are monitored to obtain a baseline for such magnitudes. • A treatment phase, beginning when mice were 8 months old, where DBA/2J and CD-1 animals were randomly divided into two groups: treated and untreated. In this phase, treated mice receive CBD doses. The treatment phase comprises 3 periods: an acute period of 1 day, where, at time 0 of the phase, mice receive a CBD dose and are monitored for 24 hours; an initial chronic period of 18 days (days 2 to 19 of the treatment phase), where mice receive a daily CBD dose, and a second chronic period of other […] (days 21 to 37 of the treatment phase), where mice receive 2 daily CBD doses. From the end of the ageing phase to the end of the following phase, the wear-off phase, IOP, tear production and tactile sensitivity are monitored three times per week, following an alternative measuring system: on a same day, IOP was monitored in two groups, while tear production and tactile sensitivity were monitored in the other two groups, while, on the following measuring day, tear production and tactile sensitivity were monitored in the first two groups and IOP was monitored in the other two groups. • A wear-off phase, during which mice receive no treatment and IOP tear production and tactile sensitivity are monitored at 24, 48, 72 and 96 hours after the beginning of the phase, following the same alternative system of the treatment phase.
CBD was administered as part of a micellar solution prepared as described in Example 1. In particular, in each dose, 5 µl of the micellar solution (with 5 mM CBD) was administered to one eye of each mice, while the other eye remained untreated or received only the vehicle, type II water. Treatment was always applied to the right eye. A different group of animals was treated during two weeks with the vehicle to ensure that it had no effect on IOP, corneal mechanical sensitivity or spontaneous production of tear.
Measurements during the chronic treatment phase were always taken prior to daily administration. At each time point indicated in the chart of Fig. 3, rebound tonometry or von Frey test was performed in the same group of animals. […]

DBA/2J mice [3] = assay: Spontaneous production of tear, Schirmer test; format: in vivo; settings: treated vs untreated
Description: (§2) The research plan designed with the animal model is depicted in Fig. 3. It comprises three main phases: • An ageing phase, which includes an initial 3-month period of quarantine and acclimatisation and an additional 4.5-month period during which IOP (from month 3 until month 7,5), tear production (from month 5,5 until month 7,5) and tactile sensitivity (from month 4 to month 7,5) are monitored to obtain a baseline for such magnitudes. • A treatment phase, beginning when mice were 8 months old, where DBA/2J and CD-1 animals were randomly divided into two groups: treated and untreated. In this phase, treated mice receive CBD doses. The treatment phase comprises 3 periods: an acute period of 1 day, where, at time 0 of the phase, mice receive a CBD dose and are monitored for 24 hours; an initial chronic period of 18 days (days 2 to 19 of the treatment phase), where mice receive a daily CBD dose, and a second chronic period of other 18 days (days 21 to 37 of the treatment phase), where mice receive 2 daily CBD doses. […]
(§3) Their analysis was carried out following the Von Schirmmer test, which consisted of an ophthalmologic examination used to measure tear production in the eyes by inserting a small special piece of absorbent paper in the corner of the eye to measure the amount of tears produced in a determined period of time. […] Then, the area of the wet test paper was measured (length x width).

CD-1 mice [4] = assay: Spontaneous production of tear, Schirmer test; format: in vivo; settings: treated vs untreated
Description: as §2, §3

CB1 knockout mice = settings: high dose, soya oil/water emulsion; cited from earlier work
[5] = topical, cited from earlier work
wildtype mice = settings: high dose, soya oil/water emulsion; cited from earlier work
[6] = Body weight and welfare (actual severity of the procedure); format: in vivo, mice
Procedure: In order to assess the actual severity of the treatment at the end of the procedure, the rates of mortality and morbidity were also recorded. Additionally, body weight measurements were […] during the study, as body weight is considered to be a sign of welfare.
The values obtained are represented in Fig. 11. Additionally, the rate with regard to the value at month 7.8 (where CBD has not been administered yet) was calculated by one-way ANOVA followed by Dunnett's Multiple Comparisons test, a statistical test used to compare multiple treatment groups with a control group. Ia applicable when multiple treatment groups are present and it is desired it determine if any of them are statistically different from the control group, is often used when it is assumed that the variance is equal among all groups The results were over 10% decrease in body weight is normally considered as a severe effect of welfare, and such a level of decrease was not found in the present study for none of the mice.

DBA/2J mice [7] = assay: Corneal mechanical sensitivity, von Frey test; format: in vivo
Description: as §1, with “phase. […]” for “phase.”
(§4) The study was carried out with the same DBA/2J animals used in the study of section 2.3, taking measures of tactile sensitivity in days different from those where IOP was measured, as scheduled in Fig. 3 and Table 3. […]
(§5) Corneal mechanical sensitivity was measured following the von Frey test. […]

CD-1 mice [8] = assay: Corneal mechanical sensitivity, von Frey test; format: in vivo; settings: treated vs untreated
Description: as §1, with “phase. […]” for “phase.”
as §4, §5

[9] = Acute, hour 1 after single dose
[10] = Chronic, day 12, one daily dose
[11] = Chronic, day 16, one daily dose
[12] = Chronic, day 21, two daily doses
[13] = Chronic, day 26, two daily doses
[14] = Chronic, day 30, two daily doses
[15] = Chronic, day 35, two daily doses
[16] = one week after finishing the treatment

For C=C(C)[C@@H]1CCC(C)=C[C@H]1c1c(O)cc(CCCCC)cc1O [CBD, cannabidiol], the CBD release [1] was “higher than 90%”, the “Δ[contra-(treated)-contra-(non-treated)]” value (DBA/2J mice [2]; [9]) was “+95%” and the “Δ[ipsi-(treated)-ipsi-(non-treated)]” value (DBA/2J mice [2]; [9]) was “+69%”. For the same compound, the “IOP ratio tn/t0, ipsi- (treated)” value (DBA/2J mice [2]; Acute, hour 1 after single dose, treated ipsilateral eye, t0 = month 3.0) was 180%, the “IOP ratio tn/t0, contra- (treated)” value (DBA/2J mice [2]; Acute, hour 1 after single dose, untreated contralateral eye, t0 = month 3.0) was 192% and the “Δ[contra-(treated)-contra-(non-treated)]” value (DBA/2J mice [2]; Chronic, day 3, one daily dose) was “+80%”. The “Δ[ipsi-(treated)-ipsi-(non-treated)]” value (DBA/2J mice [2]; Chronic, day 3, one daily dose) was “+35%”, the “IOP ratio tn/t0, contra- (treated)” value (DBA/2J mice [2]; Chronic, day 3, one daily dose, contralateral eye) was 131% and the “IOP ratio tn/t0, ipsi- (treated)” value (DBA/2J mice [2]; Chronic, day 3, one daily dose, ipsilateral eye) was 130%. For the same compound, the “Δ[contra-(treated)-contra-(non-treated)]” value (DBA/2J mice [2]; Chronic, day 7, one daily dose) was “+49%”, the “Δ[ipsi-(treated)-ipsi-(non-treated)]” value (DBA/2J mice [2]; Chronic, day 7, one daily dose) was -35% and the “IOP ratio tn/t0, contra- (treated)” value (DBA/2J mice [2]; Chronic, day 7, one daily dose, contralateral eye) was 119%. The “IOP ratio tn/t0, ipsi- (treated)” value (DBA/2J mice [2]; Chronic, day 7, one daily dose, ipsilateral eye) was 101%, the “Δ[contra-(treated)-contra-(non-treated)]” value (DBA/2J mice [2]; [10]) was “+30%” and the “Δ[ipsi-(treated)-ipsi-(non-treated)]” value (DBA/2J mice [2]; [10]) was -89%. The “IOP ratio tn/t0, contra- (treated)” value (DBA/2J mice [2]; Chronic, day 12, one daily dose, contralateral eye) was 128%, the “IOP ratio tn/t0, ipsi- (treated)” value (DBA/2J mice [2]; Chronic, day 12, one daily dose, ipsilateral eye) was 104% and the “Δ[contra-(treated)-contra-(non-treated)]” value (DBA/2J mice [2]; [11]) was -85%. The “Δ[ipsi-(treated)-ipsi-(non-treated)]” value (DBA/2J mice [2]; [11]) was -174%, the “IOP ratio tn/t0, contra- (treated)” value (DBA/2J mice [2]; Chronic, day 16, one daily dose, contralateral eye) was 117% and the “IOP ratio tn/t0, ipsi- (treated)” value (DBA/2J mice [2]; Chronic, day 16, one daily dose, ipsilateral eye) was 77%. For the same compound, the “Δ[contra-(treated)-contra-(non-treated)]” value (DBA/2J mice [2]; [12]) was -60%, the “Δ[ipsi-(treated)-ipsi-(non-treated)]” value (DBA/2J mice [2]; [12]) was -81% and the “IOP ratio tn/t0, contra- (treated)” value (DBA/2J mice [2]; Chronic, day 21, two daily doses, contralateral eye) was 100%. The “IOP ratio tn/t0, ipsi- (treated)” value (DBA/2J mice [2]; Chronic, day 21, two daily doses, ipsilateral eye) was 90%, the “Δ[contra-(treated)-contra-(non-treated)]” value (DBA/2J mice [2]; [13]) was -137% and the “Δ[ipsi-(treated)-ipsi-(non-treated)]” value (DBA/2J mice [2]; [13]) was -79%. The “IOP ratio tn/t0, contra- (treated)” value (DBA/2J mice [2]; Chronic, day 26, two daily doses, contralateral eye) was 97%, the “IOP ratio tn/t0, ipsi- (treated)” value (DBA/2J mice [2]; Chronic, day 26, two daily doses, ipsilateral eye) was 95% and the “Δ[contra-(treated)-contra-(non-treated)]” value (DBA/2J mice [2]; [14]) was -119%. For the same compound, the “Δ[ipsi-(treated)-ipsi-(non-treated)]” value (DBA/2J mice [2]; [14]) was -159%, the “IOP ratio tn/t0, contra- (treated)” value (DBA/2J mice [2]; Chronic, day 30, two daily doses, contralateral eye) was 113% and the “IOP ratio tn/t0, ipsi- (treated)” value (DBA/2J mice [2]; Chronic, day 30, two daily doses, ipsilateral eye) was 68%. The “Δ[contra-(treated)-contra-(non-treated)]” value (DBA/2J mice [2]; [15]) was -88%, the “Δ[ipsi-(treated)-ipsi-(non-treated)]” value (DBA/2J mice [2]; [15]) was -82% and the “IOP ratio tn/t0, contra- (treated)” value (DBA/2J mice [2]; Chronic, day 35, two daily doses, contralateral eye) was 96%. For the same compound, the “IOP ratio tn/t0, ipsi- (treated)” value (DBA/2J mice [2]; Chronic, day 35, two daily doses, ipsilateral eye) was 81%, the “Δ[contra-(treated)-contra-(non-treated)]” value (DBA/2J mice [2]; Wear-off, day 38, no treatment) was -44% and the “Δ[ipsi-(treated)-ipsi-(non-treated)]” value (DBA/2J mice [2]; Wear-off, day 38, no treatment) was -78%. For the same compound, the “IOP ratio tn/t0, contra- (treated)” value (DBA/2J mice [2]; Wear-off, day 38, no treatment, contralateral eye) was 64%, the “IOP ratio tn/t0, ipsi- (treated)” value (DBA/2J mice [2]; Wear-off, day 38, no treatment, ipsilateral eye) was 81% and the “Δ[contra-(treated)-contra-(non-treated)]” value (DBA/2J mice [2]; Wear-off, day 40, no treatment) was -34%. For the same compound, the “Δ[ipsi-(treated)-ipsi-(non-treated)]” value (DBA/2J mice [2]; Wear-off, day 40, no treatment) was -70%, the “IOP ratio tn/t0, contra- (treated)” value (DBA/2J mice [2]; Wear-off, day 40, no treatment, contralateral eye) was 171% and the “IOP ratio tn/t0, ipsi- (treated)” value (DBA/2J mice [2]; Wear-off, day 40, no treatment, ipsilateral eye) was 165%. For the same compound, the “IOP relative to the untreated group” value (DBA/2J mice [2]; acute administration (one dose)) was “increased IOP”, the “IOP difference relative to the untreated group” value (DBA/2J mice [2]; after giving two doses (daily)) was -80% and the “IOP compared with the untreated group” value (DBA/2J mice [2]; [16]) was “still reduced”. For the same compound, the “IOP relative to the untreated group, late phase” value (DBA/2J mice [2]; repeated administration, 7 days on) was “decreased values”, the “spontaneous production of tear” value (DBA/2J mice [3]) was “no significant effect” and the “spontaneous production of tear” value (CD-1 mice [4]) was “no significant effect”. The “effect on IOP” value (CB1 knockout mice) was “decreases IOP”, the “effect on IOP” value ([5]; delivered in mineral oil) was “IOP-lowering effect” and the “effect on IOP” value ([5]; delivered in sesame oil) was “absent”. The “effect on IOP” value (wildtype mice) was “increases IOP”, the welfare ([6]; ocular topical administration) was “no severe affection of welfare” and the “body weight decrease with regard to the weight before beginning the treatment” value ([6]; phase of repeated CBD administration, DBA/2J and CD-1 mice, larger in CD-1) was “lower than 10%”. The “corneal mechanical sensitivity relative to the untreated group” value (DBA/2J mice [7]; acute administration) was “decreased mechanical sensitivity”, the corneal mechanical sensitivity (DBA/2J mice [7]; [16]) was “still reduced” and the corneal mechanical sensitivity (CD-1 mice [8]) was “no significant effect”.
